Reference: patent publication EP0891772A2, “Therapeutic agent for rheumatic disease comprising nonsteroidal anti-inflamatory drug and phenylpropionic acid derivative” (SANTEN PHARMACEUTICAL CO., LTD., priority 1997, dated 1999)

How the values were obtained:
[1] = tested on: type II collagen-induced arthritis; experiment: type II collagen-induced arthritis model; type: in vivo, DBA/1 strain mouse; details: for bone destruction score: 26th day after the secondary sensitization
Procedure: A solution (4 mg/ml) of bovine joint cartilage type II collagen in diluted hydrochloric acid was mixed with Freund' s complete adjuvant of the same volume to prepare an emulsion. As a primary sensitization, this emulsion was injected intra-dermally into tail root site of DBA/1 strain mouse at a dose of 100 µl (corresponding to 200 µg of the type II collagen per mouse). After 21 days from the primary sensitization, 100 µl of this emulsion was injected intra-dermally into a tail root site of the mouse again (secondary sensitization). […] 5% carboxymethyl cellulose and a nonsteroidal anti-inflammatory drug was suspended in 1% methyl cellulose. With regard to the confirmation of onset of arthritis, the stage where swelling at the site of joint accompanied by erythema was defined as the onset of arthritis. With regard to degree of the arthritis, scoring was conducted for each paw according to the evaluating criterion for arthritis grade as mentioned below and the total point for four paws was used as an arthritic score. • 0: no change • 1: weak swelling and weak erythema were observed • 2: weak swelling and erythema were observed • 3: strong swelling and erythema were observed • 4: strong swelling and erythema accompanied by bone erosion were observed Then, on the 26th day after the secondary sensitization, X-ray photographs of the joints of four paws were taken.

[2] = tested on: hepatic allotransplantation; details: rats; Surg. Today, 26, 419-426(1996); cited from earlier work
[3] = tested on: adjuvant-induced arthritis; experiment: adjuvant-induced arthritis model; type: in vivo, rat
Procedure: A suspension (0.6 mg/100 µl) of Mycobacterium butyricum (adjuvant) in liquid paraffin was injected subcutaneously into a left hind paw of rat (male; nine weeks age; body weight being about 240 grams) to induce arthritis.
Incidentally, as a control, a suspension not containing a test compound was administered by the same manner as above.

[4] = diclofenac sodium alone 3 mg/kg, oral once a day
[5] = present compound alone 100 mg/kg, oral once a day

Compound | arthritic score [1, 4] | effect of delaying the onset of arthritis [1, 4] | bone destruction score ([1]; diclofenac sodium alone 3 mg/kg) | immunosuppressive action to hepatic allotransplantation [2] | pathohistological test: bone destruction, edema, etc. ([3]; present compound alone) | edema of left hindpaw (paw volume) ([3]; present compound alone 100 mg/kg, oral once a day from the 14th day after adjuvant) | arthritic score [1, 5] | incidence of arthritis [1, 5] | bone destruction score ([1]; present compound alone 100 mg/kg) | incidence of arthritis ([1]; present compound alone 200 mg/kg, oral once a day, tendency = nearly as control, as at 100 mg/kg) | arthritic score ([1]; present compound alone 200 mg/kg, oral once a day, tendency = slight improvement as at 100 mg/kg) | bone destruction score ([1]; present compound alone 200 mg/kg)
O=C(O)Cc1ccccc1Nc1c(Cl)cccc1Cl [diclofenac sodium, reference compound] | improvement in the arthritic score was recognized | no effect of delaying the onset of arthritis was recognized | a suppressive effect was recognized but the instant effect was far weaker than in the case of the combination administration | – | – | – | – | – | – | – | – | –
COc1ccc(/C=C/CCCCOc2cccc(OCCCCC(=O)O)c2CCC(=O)O)cc1 [the present compound, 3-[1-[6-(4-methoxyphenyl)hex-5E-enyl]oxy-3-(4-carboxylbutyl)oxybenzen-2-yl]propionic acid] | – | – | – | shows an immunosuppressive action | nearly no suppressive effect | nearly no suppressive effect on edema was recognized | improvement was recognized slightly | nearly the same proceeding as in the control group | no suppressive effect was recognized at all | Such a tendency was unchanged | Such a tendency was unchanged | the suppressive effect was hardly recognized
